We go through 23 compounds from patent US20130060013A1, “Compounds useful for treating neurodegenerative disorders” (SATORI PHARMACEUTICALS, INC., priority 2011, published 2013).

Bounds are passed on as bounds.

For one assay, the system named is Aβ-42. In words: Aβ-42 level in conditioned media of 2B7 cells (MSD 3-PLEX ELISA). Particulars: Homo sapiens, compound 5 hours at 37° C., 1% DMSO, percent vehicle fit to 4 parameter curve. The class given is cell-based. As for the experimental part: (§1) Assays were conducted to determine the ability of a Compound of Formula I to modulate […], and Aβ-38.
(§2) Plates with capture antibodies were blocked for 1-2 hours at room temperature with 150 μL of the manufactures blocking reagent.
(§3) Cultured 2B7 cells in 96 well plate with 250 uL of media per well until confluent;
(§4) Prepared serial dilutions of compounds in DMSO at 100× the final desired concentration;
(§5) Washed wells with 2B7 cells 1× with 250 uL of media;
(§6) Diluted DMSO stocks 1:100 into media:
(§7) Added 250 μL of media containing compounds (1% DMSO) to wells with 2B7 cells for 5 hours at 37° C.
(§8) Diluted conditioned media: 1 part media with 1% DMSO and 1 part blocking buffer;
(§9) 150 μL of the 250 μL of conditioned media were used.
(§10) Standard Curve Sample Prep:
(§11) Prepared per manufacturer's protocol (see above)
(§12) Seven point standard curve samples were prepared that contained Aβ-42, Aβ-40, and Aβ-38. The highest concentration of Aβ-42 and Aβ-38 was 3,000 pg/mL and the highest concentration of Aβ-40 was 10,000 pg/mL. Subsequent serial dilutions were 1:3 and the final composition of each sample was 1 part blocking buffer and 1 part cell medium containing 1% DMSO.
(§13) Overnight Sample Incubation:
(§14) Blocked plates are washed 5× with MSD wash buffer with a plate washer
(§15) 25 uL of detection antibody and blocker G reagent in MSD blocking solution is added
(§16) 25 uL of samples (1 part conditioned media containing 1% DMSO and 1 part MSD blocking buffer) are then added.
(§17) plates are incubated overnight at 4 degrees C. or 2 hours at room temp
(§18) Wash wells 5× with MSD wash buffer
(§19) Added 150 μL 2×MSD read buffer
(§20) A-Beta peptide levels for each peptide are calculated from the standard curve using the MSD software provided with the MSD 2400 Imager. Percent vehicle values for each compound dosage were then calculated and fit to a 4 parameter curve generating IC50 values.

The next assay has as its system Aβ-38. In words: Aβ-38 level in conditioned media of 2B7 cells (MSD 3-PLEX ELISA). The format is cell-based. Particulars: Homo sapiens, compound 5 hours at 37° C., 1% DMSO, percent vehicle fit to 4 parameter curve. How it is done: as §1, §2, §3, §4, §5, §6, §7, §8, §9, §10, §11, §12, §13, §14, §15, §16, §17, §18, §19, §20

Regarding `CO[C@@H](C1C[C@@H](C)[C@H]2C(O1)[C@H](O)[C@@]1(C)C3CC[C@H]4C(C)(C)[C@@H](O[C@H]5CN(CCN6CCC6)CCO5)CCC45C[C@@]35CC[C@]21C)C(C)(C)O` (some centres unmarked), the IC50 in the assay with Aβ-42 was below 1000 nM.
As for `CCO[C@@H]([C@H]1C[C@@H](C)[C@H]2[C@H](O1)[C@H](O)[C@@]1(C)[C@@H]3CC[C@H]4C(C)(C)[C@@H](OC(=O)[C@H]5CN(C(=O)OC(C)(C)C)CCO5)CCC45C[C@@]35CC[C@]21C)C(C)(C)O` (some centres unmarked), the 50% inhibitory concentration (IC50) in the assay on Aβ-38 and with Aβ-42 was 1000 to 10000 nM throughout.
In the assay on Aβ-42, `CCO[C@@H]([C@@H]1C[C@H]2[C@H]([C@H](C)C1)[C@@]1(C)CCC34C[C@@]35CC[C@H](O[C@H]3CN([C@@H](C)C(=O)N(C)C)CCO3)C(C)(C)[C@@H]5CC[C@H]4[C@]1(C)[C@H]2O)C(C)(C)O` (some centres unmarked) had a half-inhibitory concentration (IC50) below 1000 nM.
Regarding `CCO[C@@H]([C@H]1C[C@@H](C)[C@H]2[C@H](O1)[C@H](O)[C@@]1(C)[C@@H]3CC[C@H]4C(C)(C)[C@@H](OC(=O)[C@H]5COCCN5C(C)C)CCC45C[C@@]35CC[C@]21C)C(C)(C)O` (some centres unmarked), the half-inhibitory concentration (IC50) is 1000 to 10000 nM in the assay on Aβ-38 and below 1000 nM with Aβ-42.
For `CCO[C@@H](C1C[C@@H](C)[C@H]2C(O1)[C@H](O)[C@@]1(C)C3CC[C@H]4C(C)(C)[C@@H](O[C@H]5CN(Cc6ncco6)CCO5)CCC45C[C@@]35CC[C@]21C)C(C)(C)O` (some centres unmarked), in that order: 1000 to 10000 nM and below 1000 nM.
Regarding `CCO[C@@H]([C@H]1C[C@@H](C)[C@H]2[C@H](O1)[C@H](O)[C@@]1(C)[C@@H]3CC[C@H]4C(C)(C)[C@@H](O[C@H]5CNCCO5)CCC45C[C@@]35CC[C@]21C)C(C)(C)OCC` (some centres unmarked), the half-maximal inhibitory concentration (IC50) with Aβ-38 and with Aβ-42 was 1000 to 10000 nM in each case.
Take `CC(C)[C@@H](OC(=O)N1CCC1)[C@H]1C[C@@H](C)[C@H]2[C@H](O1)[C@H](O)[C@@]1(C)[C@@H]3CC[C@H]4C(C)(C)[C@@H](O[C@H]5CN(C(=O)CNS(=O)(=O)C(F)(F)F)CCO5)CCC45C[C@@]35CC[C@]21C` (some centres unmarked): the IC50 in the assay with Aβ-38 is below 1000 nM; in the assay with Aβ-42 it was 1000 to 10000 nM.
For the compound `CCO[C@@H]([C@H]1C[C@@H](C)[C@H]2[C@H](O1)[C@H](O)[C@@]1(C)[C@@H]3CC[C@H]4C(C)(C)[C@@H](OC(=O)[C@@H]5CN(C(=O)OC(C)(C)C)CCO5)CCC45C[C@@]35CC[C@]21C)C(C)(C)O` (some centres unmarked), the half-inhibitory concentration (IC50) with Aβ-38 and in the assay on Aβ-42 was below 1000 nM in each case.
With `CCO[C@@H]([C@H]1C[C@@H](C)[C@H]2[C@H](O1)[C@H](O)[C@@]1(C)[C@@H]3CC[C@H]4C(C)(C)[C@@H](OC(=O)[C@@H]5COCCN5C(=O)OC(C)(C)C)CCC45C[C@@]35CC[C@]21C)C(C)(C)O` (some centres unmarked), the IC50 in the assay on Aβ-38 and in the assay with Aβ-42 was 1000 to 10000 nM each time.
Consider `CCO[C@@H]([C@H]1C[C@@H](C)[C@H]2[C@H](O1)[C@H](O)[C@@]1(C)[C@@H]3CC[C@H]4C(C)(C)[C@@H](O[C@H]5CN(c6ncccn6)CCO5)CCC45C[C@@]35CC[C@]21C)C(C)(C)O` (some centres unmarked), for which the IC50 in the assay on Aβ-38 and with Aβ-42 was 1000 to 10000 nM throughout.
For `CO[C@@H]([C@H]1C[C@@H](C)[C@H]2[C@H](O1)[C@H](O)[C@@]1(C)[C@@H]3CC[C@H]4C(C)(C)[C@@H](O[C@H]5CN(C6(C)COC6)CCO5)CCC45C[C@@]35CC[C@]21C)C(C)(C)O` (some centres unmarked), the IC50 with Aβ-38 and in the assay on Aβ-42 was 1000 to 10000 nM each time.
As to `CNC1CN(C(=O)O[C@H]2CCC34C[C@]35CC[C@]3(C)[C@@H]6[C@H](O[C@@H]([C@H](OC)C(C)(C)O)C[C@H]6C)[C@H](O)[C@@]3(C)[C@@H]5CC[C@H]4C2(C)C)C1` (some centres unmarked), the concentration for half-maximal inhibition (IC50) was 1000 to 10000 nM with Aβ-38 and below 1000 nM with Aβ-42.
The matching figures for `CCO[C@@H]([C@H]1C[C@@H](C)[C@H]2[C@H](O1)[C@H](O)[C@@]1(C)[C@@H]3CC[C@H]4C(C)(C)[C@@H](OC(=O)[C@@H]5CCCN5C(=O)OC(C)(C)C)CCC45C[C@@]35CC[C@]21C)C(C)(C)O` (some centres unmarked): 1000 to 10000 nM and 1000 to 10000 nM.
As for `CCO[C@@H]([C@H]1C[C@@H](C)[C@H]2[C@H](O1)[C@H](O)[C@@]1(C)[C@@H]3CC[C@H]4C(C)(C)[C@@H](OC(=O)[C@H]5CN(C)CCO5)CCC45C[C@@]35CC[C@]21C)C(C)(C)O` (some centres unmarked), the IC50 in the assay with Aβ-38 was 1000 to 10000 nM; in the assay on Aβ-42, below 1000 nM.
For `CCO[C@@H]([C@H]1C[C@@H](C)[C@H]2[C@H](O1)[C@H](O)[C@@]1(C)[C@@H]3CC[C@H]4C(C)(C)[C@@H](O[C@H]5CN(C(CO)CO)CCO5)CCC45C[C@@]35CC[C@]21C)C(C)(C)O` (some centres unmarked), in that order: below 1000 nM and below 1000 nM.
The matching figures for `CCO[C@@H]([C@H]1C[C@@H](C)[C@H]2[C@H](O1)[C@H](O)[C@@]1(C)[C@@H]3CC[C@H]4C(C)(C)[C@@H](OC(=O)[C@@H]5CN(C)CCO5)CC[C@@]45C[C@@]35CC[C@]21C)C(C)(C)O`: 1000 to 10000 nM and below 1000 nM.
`CCO[C@@H]([C@H]1C[C@@H](C)[C@H]2[C@H](O1)[C@H](O)[C@@]1(C)[C@@H]3CC[C@H]4C(C)(C)[C@@H](OC(=O)[C@@H]5COCCN5CCOC)CCC45C[C@@]35CC[C@]21C)C(C)(C)O` (some centres unmarked): the half-maximal inhibitory concentration (IC50) with Aβ-38 was 1000 to 10000 nM; in the assay with Aβ-42 it was below 1000 nM.
For `CCO[C@@H]([C@H]1C[C@@H](C)[C@H]2[C@H](O1)[C@H](O)[C@@]1(C)[C@@H]3CC[C@H]4C(C)(C)[C@@H](O[C@H]5CN(CC(F)(F)F)CCO5)CCC45C[C@@]35CC[C@]21C)C(C)(C)O` (some centres unmarked), in that order: 1000 to 10000 nM and 1000 to 10000 nM.
The matching figures for `CCO[C@@H]([C@H]1C[C@@H](C)[C@H]2[C@H](O1)[C@H](O)[C@@]1(C)[C@@H]3CC[C@H]4C(C)(C)[C@@H](O[C@H]5CN(Cc6cnn(C)c6)CCO5)CCC45C[C@@]35CC[C@]21C)C(C)(C)O` (some centres unmarked): 1000 to 10000 nM and below 1000 nM.
For `CCO[C@@H](C1C[C@@H](C)[C@H]2C(O1)[C@H](O)[C@@]1(C)C3CC[C@H]4C(C)(C)[C@@H](O[C@H]5CN(c6ncc(F)cn6)CCO5)CCC45C[C@@]35CC[C@]21C)C(C)(C)O` (some centres unmarked), in that order: 1000 to 10000 nM and 1000 to 10000 nM.
As for `CCO[C@@H]([C@H]1C[C@@H](C)[C@H]2[C@H](O1)[C@H](O)[C@@]1(C)[C@@H]3CC[C@H]4C(C)(C)[C@@H](O[C@H]5CN(Cc6cncs6)CCO5)CCC45C[C@@]35CC[C@]21C)C(C)(C)O` (some centres unmarked), the results for the half-inhibitory concentration (IC50) with Aβ-38 and with Aβ-42 were 1000 to 10000 nM and below 1000 nM, respectively.
The matching figures for `CCO[C@@H]([C@H]1C[C@@H](C)[C@H]2[C@H](O1)[C@H](O)[C@@]1(C)[C@@H]3CC[C@H]4C(C)(C)[C@@H](O[C@H]5CN(C6CN(S(C)(=O)=O)C6)CCO5)CCC45C[C@@]35CC[C@]21C)C(C)(C)O` (some centres unmarked): below 1000 nM and below 1000 nM.
The matching figures for `CCO[C@@H]([C@H]1C[C@@H](C)[C@H]2[C@H](O1)[C@H](O)[C@]1(C)[C@@H]3CC[C@H]4C(C)(C)[C@@H](O[C@H]5CN([C@H](C)C(=O)N6CCC6)CCO5)CC[C@@]45C[C@@]35CC[C@@]21C)C(C)(C)O`: below 1000 nM and below 1000 nM.

As usually defined, the IC50 is the concentration that gives 50% inhibition. Low values mean greater potency in that assay, high ones weaker potency in that assay.
